Test results from US10000791B2, “Measurement method for human pancreatic lipase activity” (ASAHI KASEI PHARMA CORPORATION, priority 2013, dated 2018).
Each block holds one molecule with its values, some of them ahead of it.

Legend:
Type in all cases: biochemical
human pancreatic lipase [1] = assay: pH dependence of human pancreatic lipase activity in the presence of bile acids (diglyceride substrate, UV method); details: for pH for giving a maximum value of the activity (apparent optimum pH) / degree of the activation of human pancreatic lipase: pooled serum; for pH for giving a maximum value of the activity (apparent optimum pH): non-conjugated bile acid singly, pH 7.2-8.5; for degree of the activation of human pancreatic lipase: conjugated bile acid singly, 40 mmol/L in R-1
Experimental: After weighing 1,2-dioleoyl glycerol (DODG) (manufactured by Nippon Fine Chemical Co., Ltd.) to attain a concentration of 9.32 mmol/L when dissolved, 1% polyoxyethylene (10) nonyl phenyl ether (NPE) (manufactured by Wako Pure Chemical Industries Ltd.) containing 1.66 mmol/L of MES (manufactured by Dojindo Laboratories) was added thereto to be dissolved therein by stirring at 37° C. for 2 hours, and the resultant was allowed to stand still in ice for 2 hours or more. The thus obtained solution was used as a substrate original liquid.
The above-described diglyceride original liquid was used for preparing a “substrate stock solution” having the following composition:
A “first reaction solution (R-1)” having the following composition was prepared:
A “second reaction solution (R-2)” having the following composition was prepared:
A “second reaction solution (R-2) for sample blank” having the following composition was prepared:
(§1) A mixture of the substrate stock solution and the R-1 in a proportion of 1:2 was used as a first reagent. The R-2 was directly used as a second reagent. As a sample, pooled serum or a control sample (a control containing a pancreatic lipase) was used. A proportion in amount among the sample, the first reagent and the second reagent was set as sample:first reagent:second reagent of 0.01 ml:0.18 ml:0.06 ml. The sample was added to the first reagent, the resultant mixture was heated at 37° C. for 5 minutes, the second reagent was added thereto, and a change rate of an absorbance at 340 nm based on reduced NADP was obtained at 37° C. from 3 minutes after the addition of the second reagent to 4 minutes after the addition, and then, the lipase activity was calculated by using a molecular extinction coefficient of 6300 L/mol·cm of the reduced NADP. Besides, as a sample blank, saline was used instead of a sample, an absorbance was measured by using the reagent for sample blank obtained by removing MGLPII from the second reagent, and a difference between the thus measured two values was defined as an enzyme activity value. For the measurement, Hitachi automatic analyzer Model H7170 or H7080 was used.
As a conjugated bile acid to be added to the R-1, sodium taurodeoxycholate (NaTDCA), sodium glycodeoxycholate (NaGDCA), sodium glycochenodeoxycholate (NaGCDCA), sodium taurochenodeoxycholate (NaTCDCA), sodium glycocholate (NaGCA), sodium taurocholate (NaTCA) and sodium tauroursodeoxycholate (NaTUDCA) all in a concentration of 40 mmol/L were selected, the R-1 was adjusted, by using BES (manufactured by Dojindo Laboratories) respectively to pH 6.8, 7.0, 7.2, 7.4, 7.8, and 8.0, and the human pancreatic lipase activity was measured by using these. The pH of the R-2 was adjusted to be equal to that of the R-1.
It is noted that the concentration of each non-conjugated bile acid was set to be 24 mmol/L in the R-1. Besides, BES was used for adjusting pH to 7.2, 7.6, 7.8 and 8.0, and Bicine was used for adjusting pH to 8.2 and 8.5.
(§2) Similarly to Example 1, a mixture of the substrate stock solution and the R-1 in a proportion of 1:2 was used as a first reagent. Except for this, the measurement was performed in the same manner as in Example 1.
Besides, NaTCA was also combined with a conjugated bile acid, NaTDCA, to examine the pH for giving a maximum value of the human pancreatic lipase activity (the apparent optimum pH). It is noted that a BES buffer was used for adjusting pH to 6.9, 7.2 and 7.7, and a Bicine buffer was used for adjusting pH to 7.95 and 8.2. In each of the combinations of NaGCA/NaDCA, NaTCA/NaDCA, NaTUDCA/NaDCA and NaTCA/NaTDCA, the concentration of each bile acid was set to 20 mmol/L in the R-1. With respect to the combination of NaTCA and NaTDCA, a concentration of 40 mmol/L of NaTDCA was used as a control.
The compositions of the reagents and the measurement operation were the same as those of Example 2.

human pancreatic lipase [2] = assay: lipase activity measured in control, normal and heparin-administered samples with each reagent (1,2-dioleoyl glycerol, UV method; Liquitech Lipase Color II for verification); design: lipase activity relative to (1) comparative example NaDCA (Table 1): concentration or dose not given beside the values; details: for lipase activity (Table 1): NaDCA pH 8.15, other bile salts pH 7.0; for lipase activity (Table 2): comparative example pH 8.15, present example pH 7.1, bile acid 40 mmol/L in R-1; for lipase activity relative to (1) comparative example NaDCA (Table 1): pH 7.0
Experimental: as §1, §2
A commercially available reagent for a resorufin colorimetric method, “Liquitech Lipase Color II” manufactured by Roche Diagnostics using 1,2-O-dilauryl-rac-glycerol-3-glutaric acid-(6-methylresorufin)ester (DGGR), which is regarded not to be influenced by a non-pancreatic lipase, such as a lipoprotein lipase or a hepatic lipase, appearing in blood due to administration of heparin, was used for verifying the effect of the present example. “Liquitech Lipase Color II” was used in accordance with the package insert, and a special calibrator was used for calculating the enzyme activity. […] The concentration of each bile acid used in the present example was set to be the same as that in the comparative example.
As samples, a control, non-heparin-administered samples (normal samples), and heparin-administered samples were used.
The compositions of the reagents were the same as those of Example 2. As a comparative example, NaDCA (in a concentration of 40 mmol/L in the R-1) was used as the bile acid, and the reaction solution was adjusted to pH 8.15 (by the Bicine buffer) for measuring a heparin-administered sample.
It is noted that CRM-001b containing a human pancreatic recombinant lipase dissolved not in distilled water but in a pooled serum was used as the calibrator to calculate the lipase activity.
As a bile acid of the present example and a reference example, NaTDCA was selected, and the pH dependence with the pH of a reaction solution changed in a range of 6.2 to 7.6 was examined. It is noted that a case of pH 7.6 was used as the reference example. An MES buffer was used for adjusting pH to 6.2 and 6.4, and the BES buffer was used for adjusting the other pHs. As samples, (six) control samples (controls each containing a pancreatic lipase) and (nine) heparin-administered samples were used. As a comparative example, NaDCA (in a concentration of 40 mmol/L in the R-1) was used as the bile acid, and a reaction solution having pH 8.15 (the Bicine buffer) was used. Besides, “Liquitech Lipase Color II” manufactured by Roche Diagnostics was used for verifying the effect of the present example.

human pancreatic lipase [3] = assay: pH dependence of human pancreatic lipase activity in the presence of bile acids (diglyceride substrate, UV method); details: human pooled serum; pH changed between 7.4 and 8.4 (Example 12)
Target sequence in this assay (P16233 17-465): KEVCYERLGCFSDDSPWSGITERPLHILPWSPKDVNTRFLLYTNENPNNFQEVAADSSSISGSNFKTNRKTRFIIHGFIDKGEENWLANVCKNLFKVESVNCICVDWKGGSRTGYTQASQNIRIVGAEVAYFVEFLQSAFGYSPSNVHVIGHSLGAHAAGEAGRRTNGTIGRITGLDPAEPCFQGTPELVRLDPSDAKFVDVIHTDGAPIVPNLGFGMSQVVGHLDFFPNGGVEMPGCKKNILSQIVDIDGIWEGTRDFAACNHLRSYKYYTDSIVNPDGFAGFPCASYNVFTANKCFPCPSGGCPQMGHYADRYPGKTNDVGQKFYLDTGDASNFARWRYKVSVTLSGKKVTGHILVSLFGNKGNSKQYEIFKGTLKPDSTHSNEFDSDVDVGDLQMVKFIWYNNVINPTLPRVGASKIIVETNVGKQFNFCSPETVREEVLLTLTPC
Target sequence in this assay (P02703 23-112 partner): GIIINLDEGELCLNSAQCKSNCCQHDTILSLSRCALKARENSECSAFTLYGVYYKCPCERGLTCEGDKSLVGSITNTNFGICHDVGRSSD

pH for giving a maximum value of the activity (apparent optimum pH) (human pancreatic lipase [1]; 24 mmol/L in R-1): about 7.7
Molecule: C[C@H](CCC(=O)[O-])[C@H]1CC[C@H]2[C@@H]3[C@H](O)C[C@@H]4C[C@H](O)CC[C@]4(C)[C@H]3CC[C@]12C.[Na+] [NaCDCA, sodium chenodeoxycholate]

Molecule: sodium deoxycholate [NaDCA]
pH for giving a maximum value of the activity (apparent optimum pH) (human pancreatic lipase [1]; 24 mmol/L in R-1): about 8.2
lipase activity (Table 1) (human pancreatic lipase [2]; Normal sample 1): 39.1 U/L
lipase activity (Table 1) (human pancreatic lipase [2]; Normal sample 2): 95.0 U/L
lipase activity (Table 1) (human pancreatic lipase [2]; Normal sample 3): 46.6 U/L
lipase activity (Table 1) (human pancreatic lipase [2]; Normal sample 4): 43.5 U/L
lipase activity (Table 1) (human pancreatic lipase [2]; Normal sample 5): 40.7 U/L
lipase activity (Table 1) (human pancreatic lipase [2]; sample Heparin 1): 76.8 U/L
lipase activity (Table 1) (human pancreatic lipase [2]; sample Heparin 2): 86.7 U/L
lipase activity (Table 1) (human pancreatic lipase [2]; sample Heparin 3): 112.9 U/L
lipase activity (Table 1) (human pancreatic lipase [2]; sample Heparin 4): 101.4 U/L
lipase activity (Table 1) (human pancreatic lipase [2]; sample Heparin 5): 68.5 U/L
lipase activity (Table 1) (human pancreatic lipase [2]; sample Heparin 6): 69.2 U/L
lipase activity (Table 1) (human pancreatic lipase [2]; sample Heparin 7): 138.3 U/L
lipase activity (Table 1) (human pancreatic lipase [2]; sample Heparin 8): 126.0 U/L
lipase activity (Table 1) (human pancreatic lipase [2]; sample Heparin 9): 168.8 U/L
lipase activity (Table 1) (human pancreatic lipase [2]; sample PRECINORM): 51.0 U/L
lipase activity (Table 1) (human pancreatic lipase [2]; sample PRECIPATH): 128.0 U/L
pH for giving a maximum value of the human pancreatic lipase activity (human pancreatic lipase [3]): about 8.2

Molecule: C[C@H](CCC(=O)NCCS(=O)(=O)O)[C@H]1CC[C@H]2[C@@H]3[C@H](O)C[C@@H]4C[C@H](O)CC[C@]4(C)[C@H]3C[C@H](O)[C@]12C [NaTCA, sodium taurocholate]
degree of the activation of human pancreatic lipase (human pancreatic lipase [1]): below detection limit

degree of the activation of human pancreatic lipase (human pancreatic lipase [1]): below detection limit
Molecule: C[C@H](CCC(=O)NCCS(=O)(=O)[O-])[C@H]1CC[C@H]2[C@@H]3[C@@H](O)C[C@@H]4C[C@H](O)CC[C@]4(C)[C@H]3CC[C@]12C.[Na+] [NaTUDCA, sodium tauroursodeoxycholate]

degree of the activation of human pancreatic lipase (human pancreatic lipase [1]): below detection limit
Molecule: C[C@H](CCC(=O)NCC(=O)[O-])[C@H]1CC[C@H]2[C@@H]3[C@H](O)C[C@@H]4C[C@H](O)CC[C@]4(C)[C@H]3C[C@H](O)[C@]12C.[Na+] [NaGCA, sodium glycocholate]

signal of human pancreatic lipase activity (human pancreatic lipase [1]; 24 mmol/L in R-1, compared with NaDCA): merely a slight signal
Molecule: C[C@H](CCC(=O)[O-])[C@H]1CC[C@H]2[C@@H]3[C@H](O)C[C@@H]4C[C@H](O)CC[C@]4(C)[C@H]3C[C@H](O)[C@]12C.[Na+] [NaCA, sodium cholate]

lipase activity (Table 2) (human pancreatic lipase [2]; sample Heparin 1): 54.5 U/L
lipase activity (Table 2) (human pancreatic lipase [2]; sample Heparin 2): 31.7 U/L
lipase activity (Table 2) (human pancreatic lipase [2]; sample Heparin 3): 48.1 U/L
Molecule: C[C@H](CCC(=O)NCCS(=O)(=O)[O-])[C@H]1CC[C@H]2[C@@H]3[C@@H](O)C[C@@H]4C[C@H](O)CC[C@]4(C)[C@H]3CC[C@]12C.[Na+] [NaTCDCA, sodium taurochenodeoxycholate]

Molecule: C[C@H](CCC(=O)NCC(=O)[O-])[C@H]1CC[C@H]2[C@@H]3CC[C@@H]4C[C@H](O)CC[C@]4(C)[C@H]3C[C@H](O)[C@]12C.[Na+] [NaGDCA, sodium glycodeoxycholate]
lipase activity (Table 1) (human pancreatic lipase [2]; Normal sample 1): 47.1 U/L
lipase activity relative to (1) comparative example NaDCA (Table 1) (human pancreatic lipase [2]; Normal sample 1): 120.6%
lipase activity (Table 1) (human pancreatic lipase [2]; Normal sample 2): 91.5 U/L
lipase activity relative to (1) comparative example NaDCA (Table 1) (human pancreatic lipase [2]; Normal sample 2): 96.3%
lipase activity (Table 1) (human pancreatic lipase [2]; Normal sample 3): 49.7 U/L
lipase activity relative to (1) comparative example NaDCA (Table 1) (human pancreatic lipase [2]; Normal sample 3): 106.5%
lipase activity (Table 1) (human pancreatic lipase [2]; Normal sample 4): 32.9 U/L
lipase activity relative to (1) comparative example NaDCA (Table 1) (human pancreatic lipase [2]; Normal sample 4): 75.8%
lipase activity (Table 1) (human pancreatic lipase [2]; Normal sample 5): 36.2 U/L
lipase activity relative to (1) comparative example NaDCA (Table 1) (human pancreatic lipase [2]; Normal sample 5): 89.0%
lipase activity (Table 1) (human pancreatic lipase [2]; sample Heparin 1): 39.1 U/L
lipase activity relative to (1) comparative example NaDCA (Table 1) (human pancreatic lipase [2]; sample Heparin 1): 50.9%
lipase activity (Table 1) (human pancreatic lipase [2]; sample Heparin 2): 47.5 U/L
lipase activity relative to (1) comparative example NaDCA (Table 1) (human pancreatic lipase [2]; sample Heparin 2): 54.8%
lipase activity (Table 1) (human pancreatic lipase [2]; sample Heparin 3): 36.9 U/L
lipase activity relative to (1) comparative example NaDCA (Table 1) (human pancreatic lipase [2]; sample Heparin 3): 32.7%
lipase activity (Table 1) (human pancreatic lipase [2]; sample Heparin 4): 28.2 U/L
lipase activity relative to (1) comparative example NaDCA (Table 1) (human pancreatic lipase [2]; sample Heparin 4): 27.8%
lipase activity (Table 1) (human pancreatic lipase [2]; sample Heparin 5): 23.8 U/L
lipase activity relative to (1) comparative example NaDCA (Table 1) (human pancreatic lipase [2]; sample Heparin 5): 34.8%
lipase activity (Table 1) (human pancreatic lipase [2]; sample Heparin 6): 28.9 U/L
lipase activity relative to (1) comparative example NaDCA (Table 1) (human pancreatic lipase [2]; sample Heparin 6): 41.8%
lipase activity (Table 1) (human pancreatic lipase [2]; sample Heparin 7): 58.0 U/L
lipase activity relative to (1) comparative example NaDCA (Table 1) (human pancreatic lipase [2]; sample Heparin 7): 42.0%
lipase activity (Table 1) (human pancreatic lipase [2]; sample Heparin 8): 43.9 U/L
lipase activity relative to (1) comparative example NaDCA (Table 1) (human pancreatic lipase [2]; sample Heparin 8): 34.8%
lipase activity (Table 1) (human pancreatic lipase [2]; sample Heparin 9): 81.0 U/L
lipase activity relative to (1) comparative example NaDCA (Table 1) (human pancreatic lipase [2]; sample Heparin 9): 48.0%
lipase activity (Table 1) (human pancreatic lipase [2]; sample PRECINORM): 52.2 U/L
lipase activity relative to (1) comparative example NaDCA (Table 1) (human pancreatic lipase [2]; sample PRECINORM): 102.4%
lipase activity (Table 1) (human pancreatic lipase [2]; sample PRECIPATH): 124.6 U/L
lipase activity relative to (1) comparative example NaDCA (Table 1) (human pancreatic lipase [2]; sample PRECIPATH): 97.4%
